# Laboratory results: US7414071B2, “Methods of treatment with selective EP4 receptor agonists” (Pfizer Inc., priority 2002, dated 2008)
# Legend:
# human EP3 receptor = molecular target: T1, human EP3 receptor (Homo sapiens, UniProt P43115); test: Human EP3 receptor binding assay (displacement of 3H-prostaglandin E2 from 293S cell membranes); settings: displacement of 3H-prostaglandin E2, 293S membranes
# T1 construct: expressed in transfected cells; membranes
# T1 sequence (P43115 1-390): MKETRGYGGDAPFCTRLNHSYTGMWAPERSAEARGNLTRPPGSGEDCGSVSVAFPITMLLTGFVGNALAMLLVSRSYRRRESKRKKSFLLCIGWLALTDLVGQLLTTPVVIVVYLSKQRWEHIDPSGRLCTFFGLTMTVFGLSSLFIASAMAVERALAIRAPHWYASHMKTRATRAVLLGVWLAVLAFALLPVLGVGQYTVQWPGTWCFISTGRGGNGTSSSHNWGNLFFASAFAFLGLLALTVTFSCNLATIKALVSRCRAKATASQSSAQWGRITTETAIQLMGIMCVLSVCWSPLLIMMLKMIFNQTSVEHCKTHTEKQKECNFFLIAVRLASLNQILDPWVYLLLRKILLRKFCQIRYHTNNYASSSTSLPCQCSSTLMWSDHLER
# Text: (§1) The compounds of Formula I, which are useful in the methods of the present invention, bind to the prostaglandin E2 type 4 receptor (EP4 receptor). The full length coding sequence for the human EP1 receptor is made in accordance with the procedure in Funk et al., Journal of Biological Chemistry, 1993, 268, 26767-26772. The full length rat EP2 receptor is made in accordance with the procedure in Nemoto et al., Prostaglandins and other Lipid Mediators, 1997, 54, 713-725. The full length coding sequence for the human EP3 receptor is made in accordance with the procedure in Regan et al., British Journal of Pharmacology, 1994, 112, 377-385. The full length coding sequence for the rat EP4 receptor is made in accordance with the procedure in Sando et al., Biochem. Biophys. Res. Comm. 1994, 200, 1329-1333. These full length receptors are used to prepare 293S cells expressing the human EP1, rat EP2, human EP3 or rat EP4 receptors.
# (§2) The full length receptors described above are used to prepare 293S cells expressing the EP1, EP2, EP3, and EP4 receptors. […]
# (§3) Membrane Preparation: All operations are performed at 4° C. […] Pelleted membranes are resuspended to 3-10 mg protein per ml, protein concentration being determined of the method of Bradford [Bradford, M., Anal. Biochem. 1976, 72, 248]. […]
# human EP1 receptor = molecular target: T2, human EP1 receptor (Homo sapiens, UniProt P34995); test: Human EP1 receptor binding assay (displacement of 3H-prostaglandin E2 from 293S cell membranes); settings: displacement of 3H-prostaglandin E2, 293S membranes
# T2 construct: expressed in transfected cells; membranes
# T2 sequence (P34995 1-402): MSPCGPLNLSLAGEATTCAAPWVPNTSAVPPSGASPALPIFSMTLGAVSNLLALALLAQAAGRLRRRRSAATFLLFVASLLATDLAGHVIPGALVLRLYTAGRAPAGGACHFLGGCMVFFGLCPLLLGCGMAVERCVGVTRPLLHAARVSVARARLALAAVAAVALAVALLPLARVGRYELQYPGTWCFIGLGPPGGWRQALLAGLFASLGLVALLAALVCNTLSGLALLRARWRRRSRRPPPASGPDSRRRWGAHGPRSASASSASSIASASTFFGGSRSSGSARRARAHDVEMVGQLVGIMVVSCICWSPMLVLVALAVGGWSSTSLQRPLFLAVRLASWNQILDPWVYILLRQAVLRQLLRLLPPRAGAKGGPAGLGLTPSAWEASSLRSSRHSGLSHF
# Text: as §1, §2, §3
# rat EP2 receptor = molecular target: T3, rat EP2 receptor (Rattus norvegicus, UniProt Q62928); test: Rat EP2 receptor binding assay (displacement of 3H-prostaglandin E2 from 293S cell membranes); settings: displacement of 3H-prostaglandin E2, 293S membranes
# T3 construct: The full length rat EP2 receptor is made in accordance with the procedure in Nemoto et al; expressed in transfected cells; membranes
# Text: as §1, §2, §3
# rat EP4 receptor = molecular target: T4, rat EP4 receptor (Rattus norvegicus, UniProt P43114); test: Whole cell 3H-PGE2 binding with Scatchard analysis in 293S transfectants; settings: cell line selected for compound screening
# T4 construct: expressed in transfected cells
# Method: Clonal cell lines expressing the maximal number of receptors are chosen following a whole cell ^3H-PGE2 binding assay using unlabeled PGE2 as a competitor. […] Constitutive expression of the receptor in parental 293-S cells is negligible. A stable cell line containing the rat EP4 receptor is grown in Dulbecco's Mosified Eagle Medium/F12 (DMEM/F12) containing 10% fetal bovine serum and G418 (500 μg/ml) to 80% confluency.
# T3 sequence (Q62928 whole entry): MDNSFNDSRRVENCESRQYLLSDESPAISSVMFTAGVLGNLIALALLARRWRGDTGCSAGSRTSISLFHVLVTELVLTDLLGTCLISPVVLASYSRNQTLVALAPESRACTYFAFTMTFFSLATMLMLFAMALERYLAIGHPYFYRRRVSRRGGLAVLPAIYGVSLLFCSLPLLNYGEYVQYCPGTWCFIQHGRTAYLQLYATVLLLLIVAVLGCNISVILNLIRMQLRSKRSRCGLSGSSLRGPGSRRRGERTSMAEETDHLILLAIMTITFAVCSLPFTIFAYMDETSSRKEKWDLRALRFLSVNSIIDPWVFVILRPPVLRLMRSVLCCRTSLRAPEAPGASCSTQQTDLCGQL
# T4 sequence (P43114 whole entry): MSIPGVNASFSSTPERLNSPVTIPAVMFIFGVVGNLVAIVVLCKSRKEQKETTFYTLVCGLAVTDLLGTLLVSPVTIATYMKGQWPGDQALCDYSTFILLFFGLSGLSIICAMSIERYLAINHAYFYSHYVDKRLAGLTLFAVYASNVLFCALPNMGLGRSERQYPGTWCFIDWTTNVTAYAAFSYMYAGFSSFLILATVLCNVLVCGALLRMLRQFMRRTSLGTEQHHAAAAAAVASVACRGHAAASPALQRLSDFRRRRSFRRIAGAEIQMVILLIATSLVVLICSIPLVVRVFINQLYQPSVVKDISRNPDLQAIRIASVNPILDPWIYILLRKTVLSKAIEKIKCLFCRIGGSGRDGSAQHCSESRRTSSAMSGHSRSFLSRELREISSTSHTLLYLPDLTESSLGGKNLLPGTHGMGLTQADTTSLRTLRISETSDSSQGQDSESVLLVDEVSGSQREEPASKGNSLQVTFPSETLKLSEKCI
SMILES,IC50 (human EP3 receptor) [nM],IC50 (human EP1 receptor) [nM],IC50 (rat EP2 receptor) [nM],Kd (rat EP4 receptor) [nM]
O=C(O)c1ccc(CCCN2C(=O)CC[C@@H]2CC[C@@H](O)Cc2cccc(C(F)(F)F)c2)s1 [Compound 3M],> 1000,> 1000,463,–
"CCCCC[C@H](O)/C=C/[C@H]1[C@H](O)CC(=O)[C@@H]1C/C=C\CCCC(=O)O [PGE2, Prostaglandin E2]",–,–,–,2.9
